Test [1] concerns the target T1, HCV NS3/4A protease complex, BMS strain (UniProt P27958, species not given/STRAIN_BMS).
T1 construct: said of H77 and J4L6S, not expressly of BMS; fused on or other part: A three-lysine solubilising tail at the NS4A C-terminus and purification on Ni-NTA are described for the H77 and J4L6S constructs
Briefly: FRET peptide assay to monitor HCV NS3/4A proteolytic activity (BMS strain). Format: biochemical, HCV genotype 1a. Conditions: NS3/4A BMS strain; read-out: Activity Range (IC50). From the text:
HCV NS3 protease complexes, derived from the BMS strain, H77 strain or J4L6S strain, were generated, as described below. These purified recombinant proteins were generated for use in a homogeneous assay (see below) to provide an indication of how effective compounds of the present disclosure would be in inhibiting HCV NS3 proteolytic activity.
Serum from an HCV-infected patient was obtained from Dr. T. Wright, San Francisco Hospital. An engineered full-length cDNA (compliment deoxyribonucleic acid) template of the HCV genome (BMS strain) was constructed from DNA fragments obtained by reverse transcription-PCR (RT-PCR) of serum RNA (ribonucleic acid) and using primers selected on the basis of homology between other genotype 1a strains. From the determination of the entire genome sequence, a genotype 1a was assigned to the HCV isolate according to the classification of Simmonds et al. (See P Simmonds, K A Rose, S Graham, S W Chan, F McOmish, B C Dow, E A Follett, P L Yap and H Marsden, J. Clin. Microbiol., 31(6), 1493-1503 (1993)). […] The infectious clones, H77 (1a genotype) and J4L6S (1b genotype) were obtained from R. Purcell (NIH) and the sequences are published in Genbank (AAB67036, see Yanagi, M., Purcell, R. H., Emerson, S. U. and Bukh, J. Proc. Natl. Acad. Sci. U.S.A. 94(16), 8738-8743 (1997); AF054247, see Yanagi, M., St Claire, M., Shapiro, M., Emerson, S. U., Purcell, R. H. and Bukh, J, Virology 244 (1), 161-172. (1998)).
NS3/4A protease complex-containing fractions were pooled and loaded on a desalting column Superdex-S200 pre-equilibrated with buffer D (25 mM HEPES, pH 7.5, 20% glycerol, 300 mM NaCl, 0.2% Triton X-100, 10 mM βME). Sample was loaded at a flow rate of 1 mL/min. NS3/4A protease complex-containing fractions were pooled and concentrated to approximately 0.5 mg/ml. The purity of the NS3/4A protease complexes, derived from the BMS, H77 and J4L6S strains, were judged to be greater than 90% by SDS-PAGE and mass spectrometry analyses. The enzyme was stored at −80° C., thawed on ice and diluted prior to use in assay buffer.
The purpose of this in vitro assay was to measure the inhibition of HCV NS3 protease complexes, derived from the BMS strain, H77 strain or J4L6S strain, as described above, by compounds of the present disclosure. This assay provides an indication of how effective compounds of the present disclosure would be in inhibiting HCV NS3 proteolytic activity.
In order to monitor HCV NS3/4A protease activity, an NS3/4A peptide substrate was used. The substrate was RET S1 (Resonance Energy Transfer Depsipeptide Substrate; AnaSpec, Inc. cat #22991) (FRET peptide), described by Taliani et al. in Anal. Biochem. 240(2):60-67 (1996). The sequence of this peptide is loosely based on the NS4A/NS4B natural cleavage site for the HCV NS3 protease except there is an ester linkage rather than an amide bond at the cleavage site. The peptide also contains a fluorescence donor, EDANS, near one end of the peptide and an acceptor, DABCYL, near the other end. The fluorescence of the peptide is quenched by […] resonance energy transfer (RET) between the donor and the acceptor, but as the NS3 protease cleaves the peptide the products are released from RET quenching and the fluorescence of the donor becomes apparent.
The peptide substrate was incubated with one of the three recombinant NS3/4A protease complexes, in the absence or presence of a compound of the present disclosure. The inhibitory effects of a compound were determined by monitoring the formation of fluorescent reaction product in real time using a Cytofluor Series 4000.
Assay buffer: 50 mM HEPES, pH 7.5; 0.15M NaCl; 0.1% Triton; 15% Glycerol; 10 mM βME. Substrate: 2 μM final concentration (from a 2 mM stock solution in DMSO stored at −20° C.). HCV NS3/4A protease type 1a (1b), 2-3 nM final concentration (from a 5 μM stock solution in 25 mM HEPES, pH 7.5, 20% glycerol, 300 mM NaCl, 0.2% Triton-X100, 10 mM βME). […]

For test [2], the system named is HCV replicon in HUH-7 cells. As to the kind of experiment: HCV replicon FRET assay. Format: cell-based, HCV strain 1b. Particulars: Hepatitis C virus, Huh-7; HCV replicon cell assay; read-out: Activity Range (EC50). From the text: An HCV replicon whole cell system was established as described by Lohmann V, Korner F, Koch J, Herian U, Theilmann L, Bartenschlager R., Science 285(5424):110-3 (1999). This system enabled us to evaluate the effects of our HCV Protease compounds on HCV RNA replication. Briefly, using the HCV strain 1b sequence described in the Lohmann paper (Assession number: AJ238799), an HCV cDNA was synthesized by Operon Technologies, Inc. (Alameda, Calif.), and the full-length replicon was then assembled in plasmid pGem9zf(+) (Promega, Madison, Wis.) using standard molecular biology techniques. The replicon consists of (i) the HCV 5′ UTR fused to the first 12 amino acids of the capsid protein, (ii) the neomycin phosphotransferase gene (neo), (iii) the IRES from encephalomyocarditis virus (EMCV), and (iv) HCV NS3 to NS5B genes and the HCV 3′ UTR. Plasmid DNAs were linearized with ScaI and RNA transcripts were synthesized in vitro using the T7 MegaScript transcription kit (Ambion, Austin, Tex.) according to manufacturer's directions. In vitro transcripts of the cDNA were transfected into the human hepatoma cell line, HUH-7. […] Resulting cell lines were characterized for positive and negative strand RNA production and protein production over time.
The HCV replicon FRET assay was developed to monitor the inhibitory effects of compounds described in the disclosure on HCV viral replication. HUH-7 cells, constitutively expressing the HCV replicon, were grown in Dulbecco's Modified Eagle Media (DMEM) (Gibco-BRL) containing 10% Fetal calf serum (FCS) (Sigma) and 1 mg/ml G418 (Gibco-BRL). Cells were seeded the night before (1.5×10^4 cells/well) in 96-well tissue-culture sterile plates. Compound and no compound controls were prepared in DMEM containing 4% FCS, 1:100 Penicillin/Streptomysin (Gibco-BRL), 1:100 L-glutamine and 5% DMSO in the dilution plate (0.5% DMSO final concentration in the assay). Compound/DMSO mixes were added to the cells and incubated for 4 days at 37° C. After 4 days, cells were first assessed for cytotoxicity using alamar Blue (Trek Diagnotstic Systems) for a CC50 reading. The toxicity of compound (CC50) was determined by adding 1/10th volume of alamar Blue to the media incubating the cells. After 4 h, the fluorescence signal from each well was read, with an excitation wavelength at 530 nm and an emission wavelength of 580 nm, using the Cytofluor Series 4000 (Perspective Biosystems). Plates were then rinsed thoroughly with Phosphate-Buffered Saline (PBS) (3 times 150 μl). The cells were lysed with 25 μl of a lysis assay reagent containing an HCV protease substrate (5× cell Luciferase cell culture lysis reagent (Promega #E153A) diluted to 1× with distilled water, NaCl added to 150 mM final, the FRET peptide substrate (as described for the enzyme assay above) diluted to 10 μM final from a 2 mM stock in 100% DMSO. […]. The plate was then placed into the Cytofluor 4000 instrument which had been set to 340 nm excitation/490 nm emission, automatic mode for 21 cycles and the plate read in a kinetic mode. EC50 determinations were carried out as described for the IC50 determinations.
In general terms: In antiviral work, replicon cells carry a viral genome segment that copies itself.

18 molecules from US7592336B2, “Hepatitis C virus inhibitors” (Bristol-Myers Squibb Company, priority 2005, dated 2009) can be followed below.

T1 sequence (P27958 1027-1657, change not shown, one chain of several): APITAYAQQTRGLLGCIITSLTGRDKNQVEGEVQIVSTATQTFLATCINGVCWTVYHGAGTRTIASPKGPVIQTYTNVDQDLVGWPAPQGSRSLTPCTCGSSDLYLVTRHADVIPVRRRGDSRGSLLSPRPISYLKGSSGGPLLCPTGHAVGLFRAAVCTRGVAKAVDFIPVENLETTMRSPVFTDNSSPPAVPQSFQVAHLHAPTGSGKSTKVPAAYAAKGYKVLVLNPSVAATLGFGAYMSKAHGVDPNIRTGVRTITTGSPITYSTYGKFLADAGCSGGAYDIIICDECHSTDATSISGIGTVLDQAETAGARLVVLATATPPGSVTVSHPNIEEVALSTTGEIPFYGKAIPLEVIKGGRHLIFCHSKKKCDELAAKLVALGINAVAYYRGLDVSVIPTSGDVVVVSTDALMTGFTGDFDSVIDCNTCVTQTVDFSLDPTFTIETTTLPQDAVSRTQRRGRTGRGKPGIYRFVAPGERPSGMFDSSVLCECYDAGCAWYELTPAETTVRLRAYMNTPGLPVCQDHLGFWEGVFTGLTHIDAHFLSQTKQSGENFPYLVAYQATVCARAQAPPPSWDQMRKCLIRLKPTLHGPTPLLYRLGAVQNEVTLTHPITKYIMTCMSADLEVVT

As usually defined, the IC50 is the concentration needed to halve the response being measured. As a reminder, the EC50 is the concentration needed to bring the measured effect to its halfway point. For `C=C[C@@H]1C[C@]1(NC(=O)[C@@H]1C[C@@H](c2ccccc2)CN1C(=O)[C@@H](NC(=O)OC(C)(C)C)C(C)(C)C)C(=O)NS(=O)(=O)C1CC1` [Compound 1], the IC50 in test [1] is 100 to 1000 nM. In test [2], the EC50 lay within 1000 to 10000 nM.
For `C=C[C@@H]1C[C@]1(NC(=O)[C@@H]1C[C@@H](Cc2ccccc2)CN1C(=O)[C@@H](NC(=O)OC(C)(C)C)C(C)(C)C)C(=O)NS(=O)(=O)C1CC1` [Compound 2], in that order: over 1000 nM and over 10000 nM.
For `C=C[C@@H]1C[C@]1(NC(=O)[C@@H]1C[C@@](O)(c2ccccc2)CN1C(=O)[C@@H](NC(=O)OC(C)(C)C)C(C)(C)C)C(=O)NS(=O)(=O)C1CC1` [Compound 4], in that order: 100 to 1000 nM and 1000 to 10000 nM.
Consider `C=C[C@@H]1C[C@]1(NC(=O)[C@@H]1C[C@@](O)(c2ccc3ccccc3c2)CN1C(=O)[C@@H](NC(=O)OC(C)(C)C)C(C)(C)C)C(=O)NS(=O)(=O)C1CC1` [Compound 5], for which, in test [1], the IC50 lay within 1 to 100 nM. Further, the EC50 in test [2] is 10 to 1000 nM.
For `C=C[C@@H]1C[C@]1(NC(=O)[C@@H]1C[C@@](O)(c2ccc(F)cc2)CN1C(=O)[C@@H](NC(=O)OC(C)(C)C)C(C)(C)C)C(=O)NS(=O)(=O)C1CC1` [Compound 6], in that order: 100 to 1000 nM and 1000 to 10000 nM.
Consider `C=C[C@@H]1C[C@]1(NC(=O)[C@@H]1C[C@@](O)(c2ccc(OC)cc2)CN1C(=O)[C@@H](NC(=O)OC(C)(C)C)C(C)(C)C)C(=O)NS(=O)(=O)C1CC1` [Compound 7], for which, in test [1], the IC50 fell in the range of 100 to 1000 nM. The EC50 in test [2] was in the range of 1000 to 10000 nM.
The matching figures for `C=C[C@@H]1C[C@]1(NC(=O)[C@@H]1C[C@@](O)(c2cccc(-c3ccc(OC)cc3)c2)CN1C(=O)[C@@H](NC(=O)OC(C)(C)C)C(C)(C)C)C(=O)NS(=O)(=O)C1CC1` [Compound 8]: 100 to 1000 nM and 1000 to 10000 nM.
The matching figures for `C=CC[C@]1(O)C[C@@H](C(=O)N[C@]2(C(=O)NS(=O)(=O)C3CC3)C[C@H]2C=C)N(C(=O)[C@@H](NC(=O)OC(C)(C)C)C(C)(C)C)C1` [Compound 9]: over 1000 nM and over 10000 nM.
`C=C[C@@H]1C[C@]1(NC(=O)[C@@H]1C[C@@](O)(c2cccc(F)c2)CN1C(=O)[C@@H](NC(=O)OC(C)(C)C)C(C)(C)C)C(=O)NS(=O)(=O)C1CC1` [Compound 10]: the IC50 in test [1] lay within 1 to 100 nM. Further, the EC50 in test [2] lay within 1000 to 10000 nM.
As to `C=C[C@@H]1C[C@]1(NC(=O)[C@@H]1C[C@@](O)(c2cccc(OC)c2)CN1C(=O)[C@@H](NC(=O)OC(C)(C)C)C(C)(C)C)C(=O)NS(=O)(=O)C1CC1` [Compound 11], the IC50 in test [1] fell in the range of 1 to 100 nM. For the same molecule, the EC50 in test [2] was in the range of 1000 to 10000 nM.
With `C=C[C@@H]1C[C@]1(NC(=O)[C@@H]1C[C@@](O)(c2cccc(Cl)c2)CN1C(=O)[C@@H](NC(=O)OC(C)(C)C)C(C)(C)C)C(=O)NS(=O)(=O)C1CC1` [Compound 12], in test [1], the 50% inhibitory concentration (IC50) lay in the range of 1 to 100 nM. For the same molecule, the EC50 in test [2] fell in the range of 1000 to 10000 nM.
The matching figures for `C=C[C@@H]1C[C@]1(NC(=O)[C@@H]1C[C@@](O)(c2cccc(C)c2)CN1C(=O)[C@@H](NC(=O)OC(C)(C)C)C(C)(C)C)C(=O)NS(=O)(=O)C1CC1` [Compound 13]: 1 to 100 nM and 1000 to 10000 nM.
The matching figures for `C=C[C@@H]1C[C@]1(NC(=O)[C@@H]1C[C@@](O)(c2cccc(C(C)C)c2)CN1C(=O)[C@@H](NC(=O)OC(C)(C)C)C(C)(C)C)C(=O)NS(=O)(=O)C1CC1` [Compound 14]: 100 to 1000 nM and 1000 to 10000 nM.
The matching figures for `C=C[C@@H]1C[C@]1(NC(=O)[C@@H]1C[C@@](O)(c2cccc(OC(C)C)c2)CN1C(=O)[C@@H](NC(=O)OC(C)(C)C)C(C)(C)C)C(=O)NS(=O)(=O)C1CC1` [Compound 15]: 100 to 1000 nM and 1000 to 10000 nM.
Regarding `C=C[C@@H]1C[C@]1(NC(=O)[C@@H]1C[C@@](O)(c2cccc(N(C)C)c2)CN1C(=O)[C@@H](NC(=O)OC(C)(C)C)C(C)(C)C)C(=O)NS(=O)(=O)C1CC1` [Compound 16], in test [1], the IC50 lay within 100 to 1000 nM. The EC50 in test [2] was over 10000 nM.
Consider `C=C[C@@H]1C[C@]1(NC(=O)[C@@H]1C[C@@](O)(c2cccc(CN3CCCC3)c2)CN1C(=O)[C@@H](NC(=O)OC(C)(C)C)C(C)(C)C)C(=O)NS(=O)(=O)C1CC1` [Compound 17], for which the half-inhibitory concentration (IC50) in test [1] is 100 to 1000 nM. The EC50 in test [2] was over 10000 nM.
The matching figures for `C=C[C@@H]1C[C@]1(NC(=O)[C@@H]1C[C@@](O)(c2cccc(CN3CCCCC3)c2)CN1C(=O)[C@@H](NC(=O)OC(C)(C)C)C(C)(C)C)C(=O)NS(=O)(=O)C1CC1` [Compound 18]: 100 to 1000 nM and over 10000 nM.
Take `C=C[C@@H]1C[C@]1(NC(=O)[C@@H]1C[C@@](O)(c2cccc(CN3CCOCC3)c2)CN1C(=O)[C@@H](NC(=O)OC(C)(C)C)C(C)(C)C)C(=O)NS(=O)(=O)C1CC1` [Compound 19]: the IC50 in test [1] lay within 100 to 1000 nM. In addition, the EC50 in test [2] is over 10000 nM.
